One experiment relates to PKA. Nature of the experiment: PKA colorimetric activity assay (test tubes). The following applies: 0.1-10 µM. Format: biochemical. On the procedure: PKA activity was assessed using a microplate-based kinase activity assay. Each well contained reaction buffer, a purified PKA enzyme, and test samples, followed by adding 10 μL of adenosine triphosphate (ATP) solution to initiate the reaction. Plates were incubated at 30°C for 90 minutes, before being washed four times with wash buffer to remove unbound components. Next, 25 μL each of phospho-PKA substrate antibody and horseradish peroxidase (HRP)-conjugated secondary antibody (donkey anti-rabbit IgG) were added to each well. The plates were incubated at room temperature (RT) for 60 minutes under continuous shaking to ensure uniform binding. To detect the phosphorylated substrate, 100 μL of tetramethylbenzidine (TMB) substrate was added to each well, followed by a 30-minute incubation at RT. The reaction was terminated by adding stop solution, and the absorbance was measured at 450 nm by using a microplate reader to quantify PKA activity.

For a further experiment, the system named is hippocampus of TBI rats. Kind of experiment: Controlled cortical impact TBI: hippocampal immunofluorescence. The class given is in vivo, rat. Here is the method: (§1) This study used male Sprague-Dawley rats weighing 300-350 g and aged 8 weeks, obtained from DBL Co. (Chungcheongbuk-do, Republic of Korea). The rats were housed in a controlled environment with a temperature of 20 ± 2 °C, a relative humidity of 55 ± 5%, and a 12-hour light/dark cycle. They were provided ad libitum access to food and water. To minimize stress associated with transportation, animals underwent a one-week acclimatization period before the start of the experiments. All experimental procedures were conducted in compliance with the guidelines of the National Institutes of Health for the care and use of laboratory animals and were approved by the Hallym University Institutional Animal Care and Use Committee (protocol # Hallym 2022-23, approved on July 15, 2022). This manuscript follows the principles outlined in the Animal research: reporting in vivo experiments (ARRIVE) guidelines.
(§2) A controlled cortical impact (CCI) model was used to induce TBI in rats. Animals were anesthetized with 1-1.5% isoflurane in a 30:70 oxygen-to-nitrous oxide mixture and securely positioned in a stereotaxic frame. A 3 mm craniotomy was performed using a portable drill at a site 2.8 mm lateral to the midline and 3.0 mm posterior to Bregma. TBI was induced using an Impact One™ Stereotaxic Impactor (Leica Biosystems) equipped with a 3 mm flat-tip, set to deliver an impact at a velocity of 5 m/s and a depth of 3 mm. Throughout the procedure, body temperature was maintained at 36-37.5°C using a homeothermic blanket system to prevent hypothermia. […] At designated time points (3 hours, 24 hours, or 2 weeks post-injury), animals were euthanized via transcardial perfusion with saline, followed by 4% paraformaldehyde (PFA). Brains were post-fixed in 4% PFA for 1 hour, cryoprotected in 30% sucrose, and sectioned at a 30 μm thickness using a cryostat microtome (CM1850; Leica, Wetzlar, Germany). Brain sections were stored in cryoprotectant solution at 4°C until further analysis.
Brain tissues were initially treated with 1.2% hydrogen peroxide at room temperature for 15 minutes to block endogenous peroxidase activity. Following this step, the tissues were washed three times in PBS for 10 minutes each. The tissues and fixed primary neurons were incubated overnight at 4°C with primary antibodies diluted in antibody diluent. […]. After incubation with primary antibodies, tissues were washed in PBS and incubated for 2 hours at room temperature on a shaker with fluorescent-conjugated secondary antibodies (1:250, Invitrogen). All samples were counterstained with DAPI (1:1000, Invitrogen) to visualize cell nuclei. The stained tissues were mounted on gelatin-coated slides, air-dried, and coverslipped using DPX mounting medium. To evaluate the fluorescent signals of labeled proteins, observations were performed using a Zeiss LSM 710 confocal microscope (Carl Zeiss) with sequential scanning mode for DAPI and Alexa 488 and 594. Stacks of images (1024 × 1024 pixels) from consecutive slices of 0.5-0.8 μm in thickness were obtained by averaging fifteen scans per slice, processed using ZEN 2 (blue edition, Carl Zeiss).

For the next experiment, the system named is astrocytes. Nature of the experiment: Lysosomal pH detection (DND-189 fluorescence). Format: cell-based. Particulars: 10 μM AMX with 100 nM BafA1.
A further experiment has as its system TBI rats. Kind of experiment: Controlled cortical impact TBI: Morris water maze. The following applies: vs TBI-vehicle. Format: in vivo, rat. On the procedure:
as §1, §2
The MWM is a well-established behavioral test used to assess cognitive function in rodents. […] The following parameters were recorded during the training sessions: 1) escape latency (time taken to reach the platform), 2) distance traveled to locate the platform, and 3) the number of target crossings (times the platform location was crossed). […] The time spent in the target quadrant (where the platform had been located during training) and the number of crossings over the platform location were recorded. Behavioral data, including escape latency, distance traveled, target crossings, and time spent in the target quadrant, were tracked and analyzed using smart video-tracking software (Panlab, Carrer de l'Energia, Spain).

For experiment [1], the system named is primary hippocampal neurons. Nature of the experiment: Scratch injury: MAP2 / NeuN immunocytochemistry. The following applies: scratched neurons, 24 hours after scratch. The class given is cell-based, rat. Here is the method:
Primary hippocampal neurons were obtained from embryonic day 18 (E18) Sprague-Dawley rat embryos. Pregnant rats were anesthetized using 2-3% isoflurane in a gas mixture of 70% nitrous oxide and 30% oxygen. Following euthanasia, the hippocampi were carefully dissected, minced, and enzymatically dissociated using TrypLE Express (Gibco, NY, USA) for 10 minutes at 37°C. The tissue was further mechanically dissociated using fire-polished glass pipettes, and the resulting cell suspension was filtered through a 70 μm cell strainer to remove debris. Neurons were seeded at a density of 3 × 10^5 cells per well in 24-well plates pre-coated with poly-L-lysine (Sigma-Aldrich, Saint Louis, MO, USA). Cells were maintained in neurobasal medium supplemented with B-27 (Thermo Fisher Scientific, Waltham, MA, USA), GlutaMAX (Gibco), and penicillin-streptomycin. The cultures were incubated at 37.5°C in a humidified atmosphere containing 5% CO₂. After seven days of growth, neurons were fixed with 4% paraformaldehyde (PFA) for 15 minutes at room temperature and subsequently stored at 4°C until their further use for immunostaining.
A scratch injury model was used to mimic TBI in vitro. […] After the treatment period, neuronal damage and recovery were assessed using appropriate evaluation methods. […]

Where [2] appears, read: hippocampal regions, 24 hours after TBI.
Setting [3] is: hippocampus, 24 hours after TBI.

Data on 1 compound can be found in paper PMC12320245 (International Journal of Biological Sciences, 2025).

For the compound `CC(C)c1ccc2oc3nc(N)c(C(=O)O)cc3c(=O)c2c1` [AMX, amlexanox], the “PKA activity in test tubes” value in the experiment with PKA is on record as “activates PKA”. Further, in the experiment with hippocampus of TBI rats (3 hours post-TBI), the “hippocampal PDE4 expression (immunofluorescence)” value is listed as “markedly reduced PDE4 expression”. Also, in the experiment on hippocampus of TBI rats (setting [2]), the “4HNE staining (lipid peroxidation)” value is listed as “significantly reduced 4HNE staining”; the “CD86 staining (M1 polarization)” value is “decreased Iba-1 and CD86 staining”; the “Iba-1 staining (microglial activation)” value was “decreased Iba-1 and CD86 staining”. Moreover, the “p-p38 levels (immunofluorescence)” value in the experiment with hippocampus of TBI rats (hippocampal regions, 24 hours post-TBI, vs TBI-vehicle) is reported as “significantly reduced p-p38 levels”. For the same compound, in the experiment with hippocampus of TBI rats (setting [3]), the C3 intensity entry was “lower GFAP and C3 intensity”; the “GFAP intensity (astrocytic activation)” value was “lower GFAP and C3 intensity”. The “lysosomal pH (DND-189 fluorescence), reversal of BafA1 effect” value in the experiment on astrocytes is “effectively reversed BafA1-induced alkalization”. Moreover, in the experiment with TBI rats (days 8-12 post-TBI), the “MWM distance to the hidden platform” value was “reduced target distances” and the MWM escape latency result is reported as “shorter escape latency”. For the same compound, in the experiment with TBI rats (probe trial), the MWM platform crossings result was “more frequent platform crossings” and the “MWM time spent in the target quadrant” value is recorded as “increased time spent in the target quadrant”. In experiment [1], the “MAP2 fluorescence intensity (dendritic loss)” value is “Increased MAP2 fluorescence intensity” and the “number of NeuN-positive neurons” value is “significantly higher”.
